Reference: patent EP1154795B1, “MEANS FOR TREATING AND DIAGNOSING RESTLESS LEGS SYNDROME” (priority 1998, dated 2000)

Tested on: patients with light to moderate RLS/PMLS
Test: Double-blind, placebo controlled parallel group study with donepezil
Type: in vivo
Description: Double-blind, placebo controlled parallel group study with donepezil. In a double-blind, placebo controlled parallel study with the CEI donepezil we studied 9 patients with light to moderate RLS/PMLS (PLM index, PLMI = 3-17).

[1] = 5mg once daily, evening dose for 21 days

Structure (SMILES): COc1cc2c(cc1OC)C(=O)C(CC1CCN(Cc3ccccc3)CC1)C2 (stereo not drawn) [Donepezil, donepezil]
- change in total sleep time after treatment [1]: no significant change
- increase of the proportion of rapid eye movement sleep after treatment [1]: approximately 30%
- side effects during the study period [1]: No side effects were reported
- mean reduction of PLMI (5mg once daily, evening dose for 21 days, from 8.3 to 5.3): approximately 36%
- Marked reduction of PLMI (reduction in 5 patients) (5 of 9 patients, minor change in 3 patients, one patient increased PLMI, 5mg once daily for 21 days): 57-100%
- mean PLMI after treatment (9 patients (PLMI = 3-17), 5mg once daily, evening dose for 21 days, mean PLMI reduced from 8.3): 5.3
